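Protocol summary: plate cells (96-well), add compound at 5 concentrations, incubate 48 h, interpolate endpoints linearly. GI50 is the concentration that inhibits growth by half.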 Active and inactive are the calls of the source. Cut-off read from the data, not from the text of the source: active = GI50 up to about 1.1 µM and inactive = higher.

Test systems include NCI-H460; MDA-MB-435; MCF7; SK-OV-3; HCT-15; HT-29; U-251; NCI/ADR-RES; A549; SF-268; T47D; DU-145; SR; PC-3; HCT-116.
What all share (assay): inhibition of tumour cell growth, NCI panel, 48 h

Turning to `Cc1cc(C)c(O)c(Cc2cccc(Cc3cc(C)cc(C)c3O)c2O)c1`, the GI50 in the assay with NCI-H460 is > 100 µM (inactive); in the assay on MDA-MB-435, > 100 µM (inactive); in the assay with MCF7, > 100 µM (inactive); in the assay with SK-OV-3 it was > 100 µM (inactive); in the assay on HCT-15, greater than 100 µM; with HT-29, > 100 µM (inactive). Also, the GI50 in the assay with U-251, in the assay with NCI/ADR-RES, with A549, in the assay on SF-268, with T47D and in the assay with DU-145 was > 100 µM (inactive) each time. The GI50 in the assay with SR is 77.6 µM (inactive); with PC-3, > 100 µM (inactive); in the assay with HCT-116, > 100 µM (inactive).
As for `NC(=O)c1ccc[n+](C2=C([N-]S(=O)(=O)c3ccccc3)C(=O)c3ccccc3C2=O)c1`, the GI50 in the assay on NCI-H460 was 17.9 µM (inactive); in the assay with MDA-MB-435, 4.89 µM (inactive); in the assay on MCF7, 14.8 µM (inactive); in the assay on SK-OV-3, 29.4 µM (inactive); with HCT-15, 23.3 µM; in the assay on HT-29, 17.1 µM (inactive). In addition, the GI50 in the assay with U-251 was 15.1 µM (inactive); in the assay with NCI/ADR-RES it was 15.8 µM (inactive); in the assay with A549, 19.3 µM (inactive); in the assay on SF-268, 16.6 µM (inactive); in the assay with T47D, 22.6 µM (inactive); with DU-145, 19.1 µM (inactive). In addition, the GI50 in the assay on SR is 33.6 µM (inactive); in the assay with PC-3, 15.9 µM (inactive); in the assay with HCT-116, 17.5 µM (inactive).
Regarding `CCSC1=N/C(=C/c2ccccc2O)C(=O)N1`, the GI50 with NCI-H460 was > 100 µM (inactive); with MDA-MB-435, > 100 µM (inactive); in the assay on MCF7 it was > 100 µM (inactive); in the assay on SK-OV-3, 31.7 µM (inactive); with HCT-15, greater than 100 µM; in the assay on HT-29, > 100 µM (inactive). Further, the GI50 was 38.7 µM (inactive) in the assay on U-251; 45.5 µM (inactive) with NCI/ADR-RES; > 100 µM (inactive) with A549; 83.2 µM (inactive) in the assay with SF-268; 60.7 µM (inactive) in the assay on T47D; > 100 µM (inactive) in the assay on DU-145. In addition, the GI50 with SR was 63 µM (inactive); in the assay with PC-3 it was > 100 µM (inactive); with HCT-116, > 100 µM (inactive).
Regarding `CC(=O)O[C@H]1[C@@H](OC2CCCC2(c2ccccc2)c2ccccc2)O[N+]([O-])=C[C@@H]1c1ccccc1` (stereo not given in full), the GI50 with NCI-H460 was 17.9 µM (inactive); with MDA-MB-435, 3.34 µM (inactive); in the assay on MCF7, 3.48 µM (inactive); in the assay on SK-OV-3 it was 14.5 µM (inactive); with HCT-15 it was 4.75 µM; in the assay on HT-29, 2.51 µM (inactive). In addition, the GI50 in the assay with U-251 is 7.83 µM (inactive); in the assay with NCI/ADR-RES it was 5.42 µM (inactive); in the assay on A549, 9.33 µM (inactive); with SF-268, 5.01 µM (inactive); with T47D, 7.52 µM (inactive); in the assay with DU-145, 5.75 µM (inactive). For the same compound, the values for the GI50 in the assay on SR, in the assay with PC-3 and with HCT-116 were 2.4 µM (inactive), 8.24 µM (inactive) and 3.24 µM (inactive), respectively.
On to `COc1ccc(/C=N/N=C(\N)NO)c(OC)c1OC`, for which the GI50 in the assay on NCI-H460 is 33 µM (inactive); in the assay on MDA-MB-435, 57.7 µM (inactive); with MCF7 it was 11.5 µM (inactive); with SK-OV-3, 51.4 µM (inactive); in the assay with HCT-15 it was 35.2 µM; with HT-29, 20.8 µM (inactive). The GI50 with U-251 is 42.1 µM (inactive); with NCI/ADR-RES, 14 µM (inactive); with A549, 13.3 µM (inactive); with SF-268 it was 24.7 µM (inactive); in the assay with T47D it was 28.1 µM (inactive); with DU-145, 12.8 µM (inactive). Besides, the values for the GI50 with SR, with PC-3 and in the assay on HCT-116 were 25 µM (inactive), 36.3 µM (inactive) and 20.1 µM (inactive), respectively.
Consider `CCC1(c2ccc(OC)c(OC)c2)CCN2C(=O)C(O)CC21` (stereo not given), for which the GI50 is > 100 µM (inactive) in the assay on NCI-H460; > 100 µM (inactive) in the assay on MDA-MB-435; > 100 µM (inactive) in the assay on MCF7; > 100 µM (inactive) in the assay on SK-OV-3; greater than 100 µM in the assay on HCT-15; > 100 µM (inactive) in the assay with HT-29. Besides, the GI50 in the assay with U-251, with NCI/ADR-RES, with A549, with SF-268, with T47D and in the assay with DU-145 was > 100 µM (inactive) throughout. The GI50 with SR, in the assay on PC-3 and in the assay with HCT-116 was > 100 µM (inactive) in each case.
`CN(/N=C/c1ccccc1C(=O)O)C1=NCCCCN1`: the GI50 with NCI-H460 is > 100 µM (inactive); with MDA-MB-435, > 100 µM (inactive); in the assay on MCF7, > 100 µM (inactive); with SK-OV-3 it was > 100 µM (inactive); in the assay with HCT-15, greater than 100 µM; with HT-29 it was > 100 µM (inactive). Moreover, the GI50 in the assay on U-251, in the assay on NCI/ADR-RES, in the assay with A549, with SF-268, in the assay with T47D and in the assay on DU-145 was > 100 µM (inactive) throughout. The GI50 in the assay on SR, in the assay on PC-3 and with HCT-116 was > 100 µM (inactive) in each case.
In the case of `CSC(=S)Nc1cc(C)ccn1`, the GI50 in the assay on NCI-H460 was 85.9 µM (inactive); in the assay on MDA-MB-435 it was > 100 µM (inactive); in the assay with MCF7, > 100 µM (inactive); in the assay on SK-OV-3 it was > 100 µM (inactive); with HCT-15 it was greater than 100 µM; with HT-29 it was > 100 µM (inactive). Besides, the GI50 with U-251 was 67.8 µM (inactive); with NCI/ADR-RES, 60.5 µM (inactive); in the assay on A549, > 100 µM (inactive); in the assay on SF-268, 70 µM (inactive); with T47D, 58.9 µM (inactive); in the assay with DU-145, > 100 µM (inactive). In addition, the GI50 in the assay with SR is 78.2 µM (inactive); in the assay with PC-3 it was > 100 µM (inactive); in the assay on HCT-116 it was 70.5 µM (inactive).
Turning to `CC(=O)NC(Cc1ccc(OP(=O)(OCc2ccc([N+](=O)[O-])o2)N(C)CCCCCl)cc1)C(=O)NC(C)c1ccc(OCC2CCCCC2)c(C(N)=O)c1` (stereo not given), the GI50 with NCI-H460 was 3.44 µM (inactive); with MDA-MB-435 it was 2.31 µM (inactive); in the assay with MCF7 it was 2.25 µM (inactive); in the assay with SK-OV-3, 11.5 µM (inactive); in the assay on HCT-15, 20.4 µM; in the assay on HT-29 it was 2.25 µM (inactive). The GI50 was 2.48 µM (inactive) in the assay with U-251; 31.2 µM (inactive) with NCI/ADR-RES; 4.12 µM (inactive) in the assay with A549; 2.24 µM (inactive) in the assay with SF-268; 2.76 µM (inactive) with T47D; 3.74 µM (inactive) with DU-145. Besides, the GI50 with SR was 2.21 µM (inactive); with PC-3, 2.79 µM (inactive); in the assay on HCT-116, 2.36 µM (inactive).
Take `CC(C)=CCC/C(C)=C/Cc1c2c(c3oc(-c4ccc(O)c(O)c4)c(O)c(=O)c3c1O)C=CC(C)(C)O2`: the GI50 in the assay on NCI-H460 was 3.37 µM (inactive); in the assay with MDA-MB-435 it was 5.33 µM (inactive); in the assay with MCF7, 2.79 µM (inactive); in the assay on SK-OV-3, 2.57 µM (inactive); with HCT-15 it was 2.1 µM; with HT-29, 2.71 µM (inactive). Further, the GI50 was 3.21 µM (inactive) in the assay on U-251; 5.32 µM (inactive) with NCI/ADR-RES; 3.87 µM (inactive) in the assay with A549; 3.56 µM (inactive) in the assay with SF-268; 1.65 µM (inactive) with T47D; 2.24 µM (inactive) in the assay on DU-145. Besides, the GI50 with SR is 1.84 µM (inactive); in the assay with PC-3 it was 5.16 µM (inactive); with HCT-116, 2.57 µM (inactive).
On to `CC(=O)OC12CC[N+]3(C)CCCCC3C1=Nc1ccccc12` (stereo not given), for which the GI50 in the assay on NCI-H460 was > 100 µM (inactive); in the assay on MDA-MB-435 it was > 100 µM (inactive); in the assay on MCF7, > 100 µM (inactive); in the assay with SK-OV-3, > 100 µM (inactive); with HCT-15 it was greater than 100 µM; in the assay on HT-29, 63.8 µM (inactive). In addition, the GI50 was > 100 µM (inactive) in the assay on U-251; > 100 µM (inactive) with NCI/ADR-RES; 40.5 µM (inactive) in the assay with A549; > 100 µM (inactive) with SF-268; > 100 µM (inactive) in the assay with T47D; > 100 µM (inactive) in the assay on DU-145. The GI50 in the assay on SR, in the assay on PC-3 and with HCT-116 was > 100 µM (inactive) in each case.
`CCCCCCCCCCCCCCCCOCC(Cl)CP(=O)(O)OP(=O)(O)OCC1OC(n2cnc3c(N)ncnc32)C(O)C1O` (stereo not given): the GI50 in the assay with NCI-H460 was 47.5 µM (inactive); in the assay on MDA-MB-435, > 100 µM (inactive); in the assay with MCF7 it was > 100 µM (inactive); in the assay with SK-OV-3 it was > 100 µM (inactive); in the assay with HCT-15 it was greater than 100 µM; in the assay on HT-29, > 100 µM (inactive). In addition, the GI50 in the assay on U-251 is 74 µM (inactive); with NCI/ADR-RES it was > 100 µM (inactive); in the assay with A549 it was > 100 µM (inactive); in the assay with SF-268, > 100 µM (inactive); in the assay with T47D it was > 100 µM (inactive); in the assay with DU-145, > 100 µM (inactive). In addition, the figures for the GI50 with SR, in the assay with PC-3 and with HCT-116 were > 100 µM (inactive), > 100 µM (inactive) and 67 µM (inactive), respectively.
`C=C1C(=O)O[C@@H]2/C=C(/C)[C@@H](OC(C)=O)C[C@@H](O)/C(C)=C\[C@@H](OC(=O)[C@]3(C)O[C@@H]3C)[C@@H]12`: the GI50 in the assay on NCI-H460 is 26.3 µM (inactive); with MDA-MB-435 it was 15.3 µM (inactive); with MCF7 it was 5.79 µM (inactive); with SK-OV-3, 45.8 µM (inactive); in the assay with HCT-15, 12.9 µM; with HT-29 it was 15.8 µM (inactive). Also, the GI50 was 17.5 µM (inactive) in the assay with U-251; 46.6 µM (inactive) in the assay with NCI/ADR-RES; 31.2 µM (inactive) with A549; 18.9 µM (inactive) in the assay with SF-268; 11.1 µM (inactive) with T47D; 14.6 µM (inactive) in the assay with DU-145. In addition, the GI50 is 4.6 µM (inactive) with SR, 17.6 µM (inactive) with PC-3 and 3.89 µM (inactive) with HCT-116.

The values above are taken from ChEMBL document CHEMBL1201862, “PubChem BioAssay data set” (2004).
